{"source": "PubChem BioAssay AID623927", "about": "(Vanderbilt Specialized Chemistry Center, 2012)", "key": {"[1]": {"target": "Sodium-dependent serotonin transporter (Homo sapiens) (UniProt P31645)", "test": "PubChem AID 623927", "details": "Ricerca radioligand binding panel, 10 uM, % inhibition; serotonin transporter SERT binding; stronger effect = higher value"}, "[2]": {"target": "5-hydroxytryptamine receptor 1A (Homo sapiens) (UniProt P08908)", "test": "PubChem AID 623927", "details": "Ricerca radioligand binding panel, 10 uM, % inhibition; serotonin 5-HT1A binding; stronger effect = higher value"}, "[3]": {"target": "Alpha-1A adrenergic receptor (Homo sapiens) (UniProt P35348)", "test": "PubChem AID 623927", "details": "Ricerca radioligand binding panel, 10 uM, % inhibition; adrenergic alpha1A binding; stronger effect = higher value"}, "[4]": {"target": "Sigma non-opioid intracellular receptor 1 (Homo sapiens) (UniProt Q99720)", "test": "PubChem AID 623927", "details": "Ricerca radioligand binding panel, 10 uM, % inhibition; sigma 1 receptor binding; stronger effect = higher value"}, "[5]": {"test": "PubChem AID 623927", "details": "Ricerca radioligand binding panel, 10 uM, % inhibition, stronger effect = higher value"}, "[6]": {"target": "Sodium-dependent dopamine transporter (Homo sapiens) (UniProt Q01959)", "test": "PubChem AID 623927", "details": "Ricerca radioligand binding panel, 10 uM, % inhibition; dopamine transporter DAT binding; stronger effect = higher value"}, "[7]": {"target": "Voltage-gated inwardly rectifying potassium channel KCNH2 (Homo sapiens) (UniProt Q12809)", "test": "PubChem AID 623927", "details": "Ricerca radioligand binding panel, 10 uM, % inhibition; hERG channel binding; stronger effect = higher value"}, "[8]": {"target": "Adenosine receptor A1 (Homo sapiens) (UniProt P30542)", "test": "PubChem AID 623927", "details": "Ricerca radioligand binding panel, 10 uM, % inhibition; adenosine A1 binding; stronger effect = higher value"}, "[9]": {"test_system": "norepinephrine transporter (NET) [Homo sapiens]", "test": "PubChem AID 623927", "details": "Ricerca radioligand binding panel, 10 uM, % inhibition; stronger effect = higher value"}}}
{"compound": "O=C(Nc1cccc(Cl)c1)c1ccccn1", "values": [{"measurement": "inhibition", "setting": "[1]", "result": 12, "unit": "%"}, {"measurement": "inhibition", "setting": "[2]", "result": 16, "unit": "%"}, {"measurement": "inhibition", "setting": "[3]", "result": 16, "unit": "%"}, {"measurement": "inhibition", "setting": "[4]", "result": 27, "unit": "%"}, {"measurement": "inhibition", "setting": "[5]; NMDA agonist site binding", "result": 15, "unit": "%"}, {"measurement": "inhibition", "setting": "[5]; NMDA phencyclidine site binding", "result": 15, "unit": "%"}, {"measurement": "inhibition", "setting": "[5]; phorbol ester binding", "result": 21, "unit": "%"}, {"measurement": "inhibition", "setting": "[5]; rolipram site (PDE4) binding", "result": 17, "unit": "%"}, {"measurement": "inhibition", "setting": "[5]; sigma 2 receptor binding", "result": 15, "unit": "%"}, {"measurement": "inhibition", "setting": "[6]", "result": 31, "unit": "%"}, {"measurement": "inhibition", "setting": "[7]", "result": 0, "unit": "%"}, {"measurement": "inhibition", "setting": "[8]", "result": 17, "unit": "%"}, {"measurement": "inhibition of NET radioligand binding", "setting": "[9]", "result": 80, "unit": "%"}]}
